# Legend:
# Type in all cases: in vivo
# [1] = test system: A20 mouse B-cell lymphoma cell line; test: A20 mouse syngeneic tumor model (Study 1)
# Method: A20 Study 1: A20 is a mouse B-cell lymphoma cell line. A20 mouse syngeneic tumor model was generated by subcutaneous inoculation with 0.4×10^6 A20 cells (cell suspension) in approximately 9 weeks old female BALB/c mice (Vital River Laboratory Animal Technology Co., Ltd., Beijing, China) in the flank. When the mean tumor volume reached approximately 55 mm^3, the animals were randomized into one vehicle control and three treatment groups (n=10/group). Mice were then dosed with PBS or Compound No. 14 or anti-mouse PD-1 antibody or Compound No. 14 plus anti-mouse PD-1 antibody over a 31-day period. Tumor growth and body weight were measured twice per week during the treatment and post-treatment periods, and mice were humanely euthanized once they had reached their humane endpoint. […]
# (§1) Tumors were measured twice weekly using vernier calipers. Tumor volumes were calculated using standard equation: V=W^2×L/2, where V=volume, W=width, and L=length for the tumor. […] Tumor size and body weight were measured twice a week for the duration of the study. […]
# (§2) After the transformation, linear interpolation was used to estimate the time (in days) since randomization each mouse's tumor volume reaches 1000 mm^3. […] In case of a mouse's tumor having not reached 1000 mm^3 at the end of study, the last day the mouse was on study was recorded and right-censored. […]
# [2] = test system: L5178-R mouse lymphoma cell line; test: L5178-R mouse syngeneic tumor model (Study 2); conditions: vs PBS, time-to-progression (tumor 1000 mm^3), Compound No. 14 0.25 mg/kg IV Day 0, 3, 6, anti-mPD-1 10 mg/kg IP Day 0, 3, 6
# Method: L5178-R Study 2: L5178-R is a mouse lymphoma cell line. L5178-R mouse syngeneic tumor model was generated by subcutaneous inoculation with 0.2×10^6 L5178-R cells (cell suspension) in approximately 12 weeks old female DBA/2 mice (Vital River Laboratory Animal Technology Co., Ltd., Beijing, China) in the flank. When the mean tumor volume reached approximately 65 mm^3, the animals were randomized into one vehicle control and four treatment groups (n=10/group). Mice were then dosed with PBS or Compound No. 14 or anti-mouse PD-1 antibody or Compound No. 14 plus anti-mouse PD-1 antibody at 10 mg/kg (Q3D×3 & QW×3) over a 10-day period. Tumor growth and body weight were measured twice per week during the treatment and post-treatment periods, and mice were humanely euthanized once they had reached their humane endpoint. […]
# as §1, §2
# [3] = test system: WEHI-3 mouse myelomonocytic leukemia cell line; test: WEHI-3 mouse syngeneic tumor model (Study 3); conditions: WEHI3 model; vs PBS; time-to-progression (tumor 1000 mm^3); Compound No. 14 0.25 mg/kg IV Day 0, 3, 6; anti-mPD-1 10 mg/kg IP Day 0, 3, 6, 13
# Method: WEHI-3 Study 3: WEHI-3 is a mouse myelomonocytic leukemia cell line. WEHI-3 mouse syngeneic tumor model was generated by subcutaneous inoculation with 0.1×10^6 WEHI-3 cells (cell suspension) in approximately 11 weeks old female BALB/c mice (Vital River Laboratory Animal Technology Co., Ltd., Beijing, China) in the flank. When the mean tumor volume reached approximately 60 mm^3, the animals were randomized into one vehicle control and four treatment groups (n=10/group). Mice were then dosed with PBS or Compound No. 14 or anti-mouse PD-1 antibody or Compound No. 14 plus anti-mouse PD-1 antibody over a 21-day period. Tumor growth and body weight were measured twice per week during the treatment and post-treatment periods, and mice were humanely euthanized once they had reached their humane endpoint. […]
# as §1, §2
# [4] = test system: RM-1 mouse prostate carcinoma cell line; test: RM-1 mouse syngeneic tumor model (Study 4); conditions: RM-1 model; vs PBS; time-to-progression (tumor 1000 mm^3); Compound No. 14 0.25 mg/kg IV Day 0, 3, 6; anti-mPD-1 10 mg/kg IP Day 0, 3, 6, 13
# Method: RM-1 Study 4: RM-1 is a mouse prostate carcinoma cell line. RM-1 mouse syngeneic tumor model was generated by subcutaneous inoculation with 0.8×10^6 RM-1 cells (cell suspension) in 10 weeks old female C57BL/6 mice (Vital River Laboratory Animal Technology Co., Ltd., Beijing, China) in the flank. When the mean tumor volume reached approximately 60 mm^3, the animals were randomized into one vehicle control and four treatment groups (n=10/group). Mice were then dosed with PBS or Compound No. 14 or anti-mouse PD-1 antibody or Compound No. 14 plus anti-mouse PD-1 antibody over a 19-day period. Tumor growth and body weight were measured twice per week during the treatment and post-treatment periods, and mice were humanely euthanized once they had reached their humane endpoint. […]
# as §1, §2
# [5] = test system: L1210 mouse leukemia cell line; test: L1210 mouse syngeneic tumor model (Study 5); conditions: vs PBS, time-to-progression (tumor 1000 mm^3), Compound No. 14 0.25 mg/kg IV Day 0, 3, 6, anti-mPD-1 10 mg/kg IP Day 0, 3, 6, 13
# Method: L1210 Study 5: L1210 is a mouse leukemia cell line. L1210 mouse syngeneic tumor model was generated by subcutaneous inoculation with 0.02×10^6 L1210 cells (cell suspension) in approximately 11 weeks old female DBA/2 mice (Vital River Laboratory Animal Technology Co., Ltd., Beijing, China) in the flank. When the mean tumor volume reached approximately 50 mm^3, the animals were randomized into one vehicle control and four treatment groups (n=10/group). Mice were then dosed with PBS or Compound No. 14 or anti-mouse PD-1 antibody or Compound No. 14 plus anti-mouse PD-1 antibody over a 15-day period. Tumor growth and body weight were measured twice per week during the treatment and post-treatment periods, and mice were humanely euthanized once they had reached their humane endpoint. […]
# as §1, §2
smiles,measurement,setting,value
Nc1ncnc2c1ncn2[C@@H]1O[C@@H]2COP(=O)(S)O[C@@H]3[C@H](O)[C@@H](COP(=O)(S)O[C@H]2[C@H]1F)O[C@H]3n1cc(F)c2c(=O)[nH]cnc21 (stereo partly drawn) [Compound No. 14],HR (Weibull),"[1]; A20 model, vs PBS, time-to-progression (tumor 1000 mm^3), Compound No. 14 0.25 mg/kg IV Day 0, 3, 6, anti-mPD-1 10 mg/kg IP Day 0, 3, 6, 13, 20, 27",0.104
same,complete responses,"[1]; A20 study, 31 days, n=10/group",one
same,HR (Weibull),[2],0.544
same,HR (Weibull),[3],0.0487
same,HR (Weibull),[4],0.425
same,HR (Weibull),[5],0.118
